Patent US7851490B2, “Benzimidazole derivatives and their use for modulating the GABAA receptor complex” (Neurosearch A/S, priority 2005, dated 2010)
pIC50: −log10 of the molar value.

target: benzodiazepine binding site on GABAA receptors; assay: In vitro inhibition of 3H-flunitrazepam (3H-FNM) binding; set-up: species or system rat; conditions: inhibition of specific binding of 3H-FNM (1 nM), cerebral cortex membranes from male Wistar rats, 40 min at 2° C.
Experimental: In Vitro Inhibition of ^3H-flunitrazepam (^3H-FNM) Binding
The GABA recognition site and the benzodiazepine modulatory unit can selectively be labelled with ^3H-flunitrazepam.
Preparations are performed at 0-4° C. unless otherwise indicated. Cerebral cortex from male Wistar rats (150-200 g) is homogenised for 5-10 sec in 20 ml Tris-HCl (30 mM, pH 7.4) using an Ultra-Turrax homogeniser. The suspension is centrifuged at 27,000×g for 15 min and the pellet is washed three times with buffer (centrifuged at 27,000×g for 10 min). The washed pellet is homogenized in 20 ml of buffer and incubated on a water bath (37° C.) for 30 min to remove endogenous GABA and then centrifuged for 10 min at 27,000×g. The pellet is then homogenized in buffer and centrifuged for 10 min at 27,000×g. The final pellet is resuspended in 30 ml buffer and the preparation is frozen and stored at −20° C.
The membrane preparation is thawed and centrifuged at 2° C. for 10 min at 27,000×g. The pellet is washed twice with 20 ml 50 mM Tris-citrate, pH 7.1 using an Ultra-Turrax homogeniser and centrifuged for 10 min at 27,000×g. The final pellet is resuspended in 50 mM Tris-citrate, pH 7.1 (500 ml buffer per g of original tissue), and then used for binding assays. Aliquots of 0.5 ml tissue are added to 25 μl of test solution and 25 μl of ^3H-FNM (1 nM, final concentration), mixed and incubated for 40 min at 2° C. Non-specific binding is determined using Clonazepam (1 μM, final concentration). After incubation the samples are added 5 ml of ice-cold buffer and poured directly onto Whatman GF/C glass fibre filters under suction and immediately washed with 5 ml ice-cold buffer. The amount of radioactivity on the filters is determined by conventional liquid scintillation counting. Specific binding is total binding minus non-specific binding.
25-75% inhibition of specific binding must be obtained, before calculation of an IC50.
The test value will be given as IC50 (the concentration (μM) of the test substance which inhibits the specific binding of ^3H-FNM by 50%). IC50=(applied test substance concentration, […]

Row | Compound | pIC50
1 | NCc1ccc2c(c1)ncn2-c1cccc(-c2nccs2)c1 [C-[1-(3-Thiazol-2-yl-phenyl)-1H-benzoimidazol-5-yl]-methylamine] | 7.96
2 | CC(=O)NCc1ccc2c(c1)ncn2-c1cccc(-c2nccs2)c1 [N-[1-(3-Thiazol-2-yl-phenyl)-1H-benzoimidazol-5-ylmethyl]-acetamide] | 7.62
3 | O=CNCc1ccc2c(c1)ncn2-c1cccc(-c2nccs2)c1 [N-{1-[3-(Thiazol-2-yl)-phenyl]-1H-benzoimidazol-5-ylmethyl}-formamide] | 8.32
